1 compound from paper PMC7819857, “Identification of Inhibitors of Integrin Cytoplasmic Domain Interactions With Syk” (Frontiers in Immunology, 2021) can be followed below.

Read-outs that look alike come from different tables or passages of the source.

The target of one experiment is T1, GST-free Syk(6-370) (Homo sapiens, UniProt P43405).
T1 construct: Syk 6-370 (GST tag removed by thrombin cleavage) was used; GST (N, cleaved yes); made in house; host or cells: E. coli BL21(DE3)
In words: Thermal denaturation assay (SYPRO orange). As to conditions: Syk(6-370) 2 µM, dose-dependent. The format is binding. On the procedure: In this assay, Syk 6-370 (GST tag removed by thrombin cleavage) was used. Thrombin (GE Healthcare cat#270846, reconstituted in PBS to 1 unit/ul) was applied to the GST-Syk 6-370 protein bound to the Glutathione Sepharose beads. The GST-tag was cleaved with 20 unit/1 ml of protein-GST beads in PBS overnight at room temperature. After chromatography and additional cleaning on GST-beads, the purified protein was verified by SDS-PAGE. For thermal denaturation experiments, GST-free Syk(6-370) was used at a final concentration of 2 µM and SYPRO orange (Thermo Scientific, cat# S6650) at a 0.08% (v/v) dilution (from a 5000x stock). Compounds were used at indicated concentrations. Numerous reaction buffers were initially screened, and a final buffer containing 25 mM HEPES (pH 7.5) with 100 mM NaCl was used. Assays were performed in 20 µl volumes, in triplicate, in 384-well plates (Applied Biosystems MicroAmp 384-well clear optical reaction plate, catalogue #4483285). Plates were sealed with Applied Biosystems Optical Adhesive Cover (cat#4360954) and centrifuged for 2 min at 800 × g at room temperature. Thermal denaturation was measured on a Quant Studio 6 Flex Real-time PCR system (Applied Biosystems). […]

For experiment [1], the target named is T2, integrin β3 cytoplasmic domain : tandem SH2 domains of Syk (GST-Syk(6-370)) (Homo sapiens, UniProt P43405).
T2 construct: the tandem SH2 domains of Syk (residues 6-370); made in house; host or cells: E. coli BL21(DE3)
As to the kind of experiment: AlphaScreen of integrin β3 cytoplasmic domain peptide binding to GST-Syk(6-370). On the procedure: (§1) The following HTS assay was developed to identify antagonists of the interaction between the integrin β3 cytoplasmic domain and the non-receptor tyrosine kinase Syk. […] ( Figure 1E ). Background signals in this assay were determined by omitting the integrin β3 peptide. Specific assay conditions are described in Table 1 . […] Then, either dimethyl sulfoxide control or compound was added, followed by biotinylated β3 peptide, and avidin-coated AlphaScreen donor beads. After a 4-h incubation period at room temperature (while protected from light), assays plates were read on an Infinite M1000 (Tecan) multiplate reader (Ex. 680/30; Em. 570/100).
Figure 3 Dose-response curves in primary and orthogonal screens. (A) AlphaScreen dose-response curves. […] Data are expressed as mean fluorescence (Fl520) ± range from duplicates, and one representative experiment of “n” performed is shown. (B) Orthogonal ELISA-based dose-response assays. […] Data are expressed as mean abs450 ± SEM from triplicate determinations, and one of three representative experiments is shown. (C) Ceftazidime inhibition of β3 peptide binding to Syk from THP-1 whole cell lysate. THP-1 cell lysate (100 ug) was treated with or without ceftazidime (Ctaz) before incubation with β3-coated avidin-agarose beads, and bound Syk was measured by western blot (example shown in inset). Blank beads served as a negative control. Equal β3 peptide loading was verified by probing blots with avidin-HRP (not shown).

The subject of the next experiment is THP-1 cells. In words: THP-1 cell adhesion to CS-1. As to conditions: cells loaded by glycerol shock. The format is cell-based, human. On the procedure:
Supplemental Figure 6. Effects of ceftazidime on THP-1 adhesion to CS-1. Cells were loaded with ceftazidime by glycerol shock. After loading, cells were washed with media and loaded with calcein-AM. CS-1–conjugated bovine serum albumin was immobilized in 96-well plates (5 ug/ml), and adhesion assays were performed as previously described (1). Data are expressed as average fluorescence ± standard deviation from triplicates. One of two representative experiments is shown. The green line represents cell adhesion in the absence of ceftazidime.

Experiment [2] addresses T3, integrin β1A cytoplasmic domain : GST-Syk(6-370) (Homo sapiens, UniProt P43405).
T3 construct: made in house; host or cells: E. coli BL21(DE3)
As to the kind of experiment: AlphaScreen of integrin β1A cytoplasmic domain binding to Syk. As to conditions: read-out: antagonist activity against β1 (value without measure name), AlphaScreen. On the procedure: as §1
Figure 4 Ceftazidime inhibition of integrin signaling. (A) Dose-response curves comparing ceftazidime antagonist activity against integrin β1A, β2, and β3 cytoplasmic domains binding to Syk as measured in AlphaScreen assays. […] Data are expressed as mean fluorescence (Fl520) ± the range from duplicate determinations. One of three experiments is shown. (B) Flow cytometric analysis of integrin α4β1, β2 subunit, αVβ3, and FcγRI (CD64) on THP-1 cells. Isotype control staining is shown as light gray histograms. Specific integrin staining is shown as darker gray histograms. […] One representative blot is shown (top), along with quantification of three separate experiments normalized to maximum Syk phosphorylation (bottom). Results are expressed as the mean ± SEM.
In general terms: Bead proximity is the source of the signal in Alpha formats.

`CC(C)(O/N=C(\C(=O)N[C@@H]1C(=O)N2C(C(=O)[O-])=C(C[n+]3ccccc3)CS[C@H]12)c1csc(N)n1)C(=O)O` [ceftazidime]: the “effect on melting temperature (Tm) of Syk(6-370)” value on GST-free Syk(6-370) was “decreased”. For the same compound, the IC50 in experiment [1] (Figure 3A: biotinylated-b3(sh) peptide 30 nM, GST-Syk(6-370) 0.3 nM, read-out: IC50, AlphaScreen dose-response) is 1.02 ± 0.2 µM; in experiment [1] (abstract summary for both compounds, read-out: IC50 range, inhibition of integrin β-subunit cytoplasmic domain binding to the tandem SH2 domains of Syk) it was 1.02 to 4.9 µM; in experiment [1] (as restated in the Discussion, read-out: IC50 in AlphaScreen assays) it was 1 µM; in experiment [1] (biotinylated β chain peptide 30 nM, GST-Syk(6-370) 0.3 nM, Figure 4A, read-out: antagonist activity against β3 (value without measure name), AlphaScreen) it was 1.87 ± 0.2 µM; in experiment [2], 1.62 ± 0.41 µM. In experiment [1] (re-sourced compounds, counter screen with biotinylated GST), the “fold difference in inhibition, primary screen over false-positive counter screen (hit criterion)” value is “greater than 3 fold”. For the same compound, in experiment [1] (re-sourced from a separate commercial source, 25 uM in text, 30 uM in legend of Figure 2C), the “inhibition of fluorescent signal in the primary screen, re-sourced compounds (hit criterion)” value is on record as “greater than 50%”. Besides, in the experiment on THP-1 cells, the “effect on THP-1 cell adhesion to CS-1” value is recorded as “not due to ceftazidime inhibition of THP-1 cell adhesion to CS-1”.
